One compound from US20250213566A1, “PHARMACEUTICAL COMPOSITION FOR PREVENTING OR TREATING SKIN DISEASES CAUSED BY RADIATION IRRADIATION COMPRISING DARAPLADIB OR PHARMACEUTICALLY ACCEPTABLE SALT THEREOF AS ACTIVE INGREDIENT” (KOREA INSTITUTE OF RADIOLOGICAL & MEDICAL SCIENCES, priority 2022, published 2025) can be followed below.

One assay relates to α-SMA. As to the kind of experiment: α-SMA expression in irradiated skin by IHC staining, immunofluorescence and Western blot. The format is in vivo, mice. Conditions: FIG. 7. On the procedure: (§1) In order to identify the effect of darapladib in improving radiation-induced skin damage, SKH-1 hairless mice, which has the most similar characteristics to the human skin layer, immune system, and vascular system, was used, and for the irradiated group, local irradiation was performed on the skin in a total of 40 Gy by irradiating two times by 20 Gy at intervals of 5 days. Darapladib was used to suppress radiation-induced skin damage, and subcutaneous injections were given at different concentrations (20 mg/kg and 40 mg/kg).

Another assay concerns collagen. As to the kind of experiment: Masson's trichrome staining of irradiated skin (collagen deposition). The class given is in vivo, mice. The note with it: day 20 after irradiation, IR/Dara group, FIG. 6. As for the experimental part: as §1
The subject of the next assay is vimentin. As to the kind of experiment: Vimentin expression in irradiated skin by immunohistochemistry. The format is in vivo, mice. The note with it: FIG. 8. On the procedure:
as §1, with “mg/kg). In addition, to identify the effect of darapladib on vimentin, which is another marker of fibrosis and applicable to immune diseases, immunohistochemistry (IHC) method was applied to stain the surface of the skin.” for “mg/kg).”

In assay [1] the test system is SKH-1 hairless mice. As to the kind of experiment: Radiation-induced skin damage in SKH-1 hairless mice, appearance of skin. The class given is in vivo. The note with it: day 20 after irradiation, FIG. 3. As for the experimental part:
as §1

Assay [2] deals with SKH-1 hairless mice. The experiment in a line: Histological changes in irradiated skin, hematoxylin and eosin staining, Image J quantification of adipocytes. The format is in vivo. On the procedure: In order to identify the effect of darapladib in improving radiation-induced skin damage, SKH-1 hairless mice, which has the most similar characteristics to the human skin layer, immune system, and vascular system, was used, and for the irradiated group, local irradiation was performed on the skin in a total of 40 Gy by irradiating two times by 20 Gy at intervals of 5 days. Darapladib was used to suppress radiation-induced skin damage, and subcutaneous injections were given at different concentrations (20 mg/kg and 40 mg/kg). In addition, in order to observe the histological changes in the skin, the extracted tissues were embedded by undergoing a paraffin infiltration process, a 4 μm thinned section was prepared to undergo deparaffinization and hydration followed by staining with hematoxylin and eosin, and then tissue damage, blood vessel damage, and changes in the epidermis, dermis, and adipocyte layer of skin tissue were observed using an optical microscope. In addition, to quantify the degree of skin damage, the area and number of granules in which adipocytes are present were calculated and statistically analyzed using the Image J program.

In assay [3] the test system is SKH-1 hairless mice. As to the kind of experiment: Skin moisture content (Corneometer), moisture loss (Tewameter) and skin pH after irradiation. The format is in vivo. Conditions: 40 Gy local irradiation; day 20 after irradiation; skin pH meter; FIG. 4. As for the experimental part:
as §1, with “mg/kg). In addition, in order to quantitatively observe the effect of darapladib in inhibiting radiation-induced skin damage, the moisture content, moisture loss, and pH level of the skin were measured on day 20 after irradiation. The moisture content in the skin was measured using Corneometer (Corneometer CM825, CK electronic GmbH, Germany), the moisture loss by Tewameter (TM300, CK electronic GmbH, Germany), and the pH level of the skin by a skin pH meter (pH905, CK electronic GmbH, Germany).” for “mg/kg).”

The test system of the next assay is human fibroblasts. The experiment in a line: TGF-β-induced differentiation from fibroblasts to myofibroblasts, immunofluorescence staining of collagen. The class given is cell-based. Conditions: TGF-β treated fibroblasts; darapladib 0.25 nM and 0.5 nM applied 1 hour before TGF-β; vs TGF-β treated group; FIG. 1. As for the experimental part:
To identify the effect of darapladib on suppression of differentiation from fibroblasts to myofibroblasts, used was a transforming growth factor-beta (TGF-β), a growth factor that induces differentiation from human fibroblasts to myofibroblasts. Darapladib was applied to the medium at low concentration (0.25 nM) and high concentration (0.5 nM) respectively 1 hour before TGF-β treatment and then fixed with 4% formaldehyde in a live state in a single-layer culture of fibroblasts, and immunofluorescence staining of collagen was performed, followed by visualization by confocal microscopy.

[4] abbreviates: irradiated skin sections, H&E, Dara+IR group, FIG. 5A.

Consider `CCN(CC)CCN(Cc1ccc(-c2ccc(C(F)(F)F)cc2)cc1)C(=O)Cn1c(SCc2ccc(F)cc2)nc(=O)c2c1CCC2` [darapladib], for which the “expression of α-SMA” value in the assay on α-SMA (IR/Dara group vs irradiated group) is given as “reduced expression of α-SMA compared to the irradiated group”; with α-SMA (high concentration, 40 mg/kg), “expression level similar to that of the control group”. For the same compound, the “collagen fiber or thickness of the skin layer” value in the assay on collagen is listed as “restored to a level of the control group”. Besides, the vimentin expression result in the assay on vimentin (IR/Dara group) is listed as “decreased”; with vimentin (high concentration, 40 mg/kg), “similarly to the control group”. Further, in the assay on SKH-1 hairless mice [1] (40 Gy local irradiation (2 x 20 Gy), subcutaneous 20 mg/kg and 40 mg/kg, vs irradiated group), the “fibrosis (chronic thickening of skin surface, red wounds, inflammation)” value is listed as “remarkably reduced”. Moreover, the “recovery of irradiated skin” value with SKH-1 hairless mice [1] (40 Gy local irradiation, subcutaneous 40 mg/kg (high concentration)) was “recovery similar to that of the control group without irradiation”. In the assay on SKH-1 hairless mice [2] (setting [4]), the adipocyte granules result is recorded as “retained”. The “thickness of the epidermis and dermis of the skin” value in the assay on SKH-1 hairless mice [2] (setting [4]) is listed as “restored similar to the control group”. Further, the area of adipocytes entry with SKH-1 hairless mice [2] (irradiated skin, Image J, FIGS. 5B and 5C) is listed as “significantly recovered”. For the same compound, the “skin pH” value in the assay with SKH-1 hairless mice [3] was “remained slightly acidic”. The expression of collagen result in the assay with human fibroblasts is listed as “decreased significantly”.
